Source: patent publication US20260116865A1, “PHOSPHOR FOR DETECTING FIRE BLIGHT PATHOGEN AND USE THEREOF” (UNIVERSITY-INDUSTRY COOPERATION GROUP OF KYUNG HEE …, priority 2023, published 2026)

Legend:
[1] = Absorption and fluorescence properties of B-1 in aqueous solution; assay type: physicochemical
Procedure: (§1) To evaluate the absorption and fluorescence properties of the phosphor compound B-1 synthesized in Example 1, the changes in the absorption and fluorescence spectra of B-1 were measured in aqueous solution and in the presence of Erwinia amylovora, the causal pathogen of fire blight in fruit trees, and the results are shown in FIG. 2.
(§2) Specifically, the E. amylovora used in the experiment was cultured overnight at 26° C. in Luria-Bertani (LB) liquid medium. After cultivation, E. amylovora was harvested by centrifugation at 10,000 ref. First, B-1 was added, and its absorption and fluorescence spectra were analyzed in aqueous solution. Then, E. amylovora (4.3×10^8 CFU) was added to the aqueous solution containing B-1, and the changes in the absorption and fluorescence spectra were analyzed. A UV/Vis spectrophotometer (Agilent, USA) was used to analyze the absorbance spectra, and a fluorescence spectrophotometer (SHIMADZU CORP. RF-6000, Japan) was used for fluorescence spectra analysis. For all spectral measurements, a standard quartz cell with a path length of 1 cm (Hellma Analytics, Germany) was used.
(§3) The measurement results are shown in FIG. 2, where the absorption and fluorescence spectra of B-1 (10 μM) in aqueous solution are represented by a dashed line, and those in the presence of E. amylovora are represented by a solid line.

Erwinia amylovora = test: Absorption and fluorescence change of B-1 in the presence of E. amylovora; assay type: cell-based; conditions: B-1 10 μM, E. amylovora 4.3×10^8 CFU
Procedure: as §1, §2, §3

E. amylovora [2] = test: Fluorescence response of B-1 according to concentration of E. amylovora; assay type: cell-based, Erwinia amylovora; conditions: B-1 10 μM, E. amylovora 2×10^6 to 4×10^8 CFU/mL in DI H2O, excitation 550 nm
Procedure: Specifically, to determine the concentration of E. amylovora obtained as described in Example 2, absorbance at 600 nm was measured (OD600 0.1=1×10^8 cells). E. amylovora was then diluted in DI H2O to concentrations ranging from 2×10^6 to 4×10^8 CFU/mL, and each dilution was reacted with 10 μM of B-1. Fluorescence intensity at 686 nm was recorded after excitation at 550 nm, and plotted on a graph.

E. amylovora [3] = test: Limit of detection of B-1 for E. amylovora; assay type: cell-based, Erwinia amylovora; conditions: B-1 5 μM in DI H2O, emission 686 nm, excitation 551 nm, serially diluted E. amylovora
Procedure: E. amylovora was serially diluted and reacted with the phosphor compound B-1 synthesized in Example 1 to evaluate its minimum detection capability, and the results are shown in FIG. 4.
Specifically, quantified E. amylovora, as prepared in Example 3, was reacted with 5 μM of B-1 in DI H2O. Fluorescence intensity was then measured at 686 nm with an excitation wavelength of 551 nm, and the results were plotted on a graph.

E. amylovora [4] = test: Time-dependent detection capability of B-1 for E. amylovora; assay type: cell-based, Erwinia amylovora; conditions: B-1 10 μM, E. amylovora 10^8 CFU/mL in DI H2O, 686 nm, excitation 550 nm, monitored up to 40 minutes
Procedure: Specifically, 10 μM of B-1 was reacted with E. amylovora at a concentration of 10^8 CFU/mL, quantified as described in Example 3, in DI H2O. Fluorescence changes were monitored at 686 nm with 550 nm excitation for up to 40 minutes.

E. amylovora [5] = test: Staining ability for E. amylovora, confocal laser scanning microscopy; assay type: cell-based, Erwinia amylovora; conditions: B-1 30 μM with DAPI 300 nM in PBS, 1 hour
Procedure: Specifically, E. amylovora obtained as described in Example 2 was stained by reacting with 30 μM of B-1 in phosphate-buffered saline (PBS) for 1 hour. To visualize […] E. amylovora, a counterstain with 300 nM of 4′,6-diamidino-2-phenylindole (DAPI) was applied simultaneously. The stained E. amylovora was then washed three times with PBS to remove residual B-1 and DAPI, followed by heat fixation and mounting on a slide glass for imaging using a confocal laser scanning microscope (Carl Zeiss, Germany). During confocal microscopy, differential interference contrast (DIC) images were also captured. The wavelengths used for imaging were as follows: [DAPI] excitation wavelength: 405 nm, emission wavelength: 410-530 nm, [B-1] excitation wavelength: 561 nm, emission wavelength: 600-700 nm.

E. amylovora [6] = test: Detection of E. amylovora on plant surfaces (spraying method), immature apples and apple blossoms; design: species or system Erwinia amylovora; conditions: 100 μM B-1 sprayed twice, 365 nm flashlight
Procedure: To evaluate whether E. amylovora present on actual plant surfaces could be detected using the phosphor compound B-1 synthesized in Example 1, a spraying-based detection was performed by applying B-1 to tissues (organs: fruits and blossoms) of a Fuji apple tree, and the procedure and results are shown in FIG. 7.
Specifically, to simulate plants infected with fire blight in fruit trees, E. amylovora quantified as described in Example 3 at concentrations of 10^2 to 10^8 CFU/mL was applied to immature apples (fruits) and apple blossoms using a brush, as shown in FIG. 7a. To allow E. amylovora to adhere to the plant surface, the samples were air-dried for 10 minutes. For detection, a 100 μM solution of B-1 diluted in […] was sprayed twice, and 10 minutes later, fluorescence changes were observed under a 365 nm flashlight.

E. amylovora [7] = test: Detection of E. amylovora on apple tree tissues (spray and swab methods); design: species or system Erwinia amylovora; conditions: tissue incubated with E. amylovora 10^8 CFU/mL
Procedure: Detection of E. amylovora on each plant tissue was then attempted by either spraying with a 100 μM solution of B-1 or swabbing with a cotton swab soaked in B-1 solution. Fluorescence changes were observed under a 365 nm flashlight.

E. amylovora [8] = test: Detection of E. amylovora on agricultural tool surfaces (spraying); design: species or system Erwinia amylovora; conditions: 100 μM B-1 sprayed twice, 365 nm flashlight
Excerpt: To evaluate whether the phosphor compound B-1 synthesized in Example 1 could detect E. amylovora present on objects, a spraying-based detection method was employed. As the test object, farming tools, which are known to be one of the causes of cross-contamination from infected plants in orchards, were used.
Specifically, to simulate farming tools exposed to E. amylovora, pruning shears and a trowel were either used to cut fire blight-infected plants directly or rubbed in soil contaminated with E. amylovora, as shown in FIG. 9a. Detection of E. amylovora was carried out by spraying 100 μM of B-1 solution twice onto the tool surfaces, and fluorescence images were captured under a 365 nm flashlight.

CN(C)c1ccc2cc3cc(C(=C(C#N)C#N)c4ccccc4)oc3cc2c1 [Compound B-1]
maximum absorption ([1]; B-1 10 μM in aqueous solution): 550 nm
fluorescence in aqueous solution ([1]; B-1 10 μM, aqueous solution, excitation 550 nm): little to no fluorescence
change of absorption spectrum upon addition of E. amylovora (Erwinia amylovora): slight overall increase
wavelength of highest fluorescence increase (Erwinia amylovora; excitation 550 nm): 686 nm
fluorescence change upon addition of E. amylovora (Erwinia amylovora; excitation 550 nm, compared to aqueous condition alone): significant enhancement
fluorescence intensity at 686 nm versus E. amylovora concentration (E. amylovora [2]): increased in proportion to the concentration of E. amylovora
lowest detectable concentration of E. amylovora (E. amylovora [3]): 10^2 CFU/mL
time to rapid fluorescence increase (E. amylovora [4]): ≤ 10 min
staining of E. amylovora (confocal fluorescence) (E. amylovora [5]): capable of staining live E. amylovora and produces strong red fluorescence
lowest detectable level of E. amylovora on actual plant surfaces (E. amylovora [6]; ImageJ quantification): 10^2 CFU/mL
red fluorescence on immature apples and apple blossoms (E. amylovora [6]; E. amylovora 10^2 to 10^8 CFU/mL brushed on, 10 minutes): red fluorescence was observed for all concentrations
fluorescence on infected apple twigs, spraying (E. amylovora [7]; 100 μM B-1 sprayed, 365 nm flashlight): red fluorescence was observed
fluorescence of B-1-soaked swab rubbed onto infected apple blossoms and leaves (E. amylovora [7]; cotton swab soaked with B-1, 365 nm flashlight): red fluorescence was emitted from the swab
fluorescence of contaminated areas of pruning shears and trowel (E. amylovora [8]): emitted red fluorescence

N=C(N)c1ccc(-c2cc3ccc(C(=N)N)cc3[nH]2)cc1 [DAPI, 4′,6-diamidino-2-phenylindole, reference compound]
staining of E. amylovora (confocal fluorescence) (E. amylovora [5]): fluorescence signals were observed
